Test results: patent US11052091B2, “BRK inhibitory compound” (ONO PHARMACEUTICAL CO., LTD., priority 2016, dated 2021)

What was measured:
Brk enzyme = Brk enzyme (Homo sapiens (Human), UniProt Q13882); assay: Measurement of Brk inhibitory activity (LanthaScreen TR-FRET); details: read-out: Brk inhibitory activity (IC50)
Protocol: Measurement of an inhibitory activity on Brk enzyme was performed by using LanthaScreen (registered trademark) system (Invitrogen) in accordance with the attached manual. Reagents used are described below.
Reaction Buffer: A solution containing 50 mmol/L HEPES (pH 7.5), 0.01% Brij 35, 10 mmol/L MgCl2 and 1 mmol/L EGTA was prepared by using purified water.
A solution of a test substance (the compound of the present invention): A solution of each concentration of a test compound in DMSO was diluted 20-fold with Reaction Buffer, and a solution containing a test compound at a concentration 5 times a final concentration was prepared. An enzyme solution: A solution containing 480 ng/mL of Brk enzyme was prepared by using Reaction Buffer. […] A detection solution: A solution containing 20 mmol/L of EDTA and 4 nmol/L of PY20 (Invitrogen) was prepared by using Dilution B (Invitrogen).
To a 96-well plate (Nunc), a solution of 10 mmol/L of a test compound in DMSO was dispensed, and further, a dilution series at a common ratio of three was prepared by using DMSO. […] The phosphorylation of the artificial substrate was quantified by Time-Resolved Fluorescence Resonance Energy Transfer (TR-FRET). […]

p38α = p38α (Homo sapiens (Human), UniProt Q16539); assay: Enzyme inhibitory activity on kinases other than Brk (selectivity), p38α; type: biochemical; details: compound concentration of 1 μmol/L; read-out: inhibition rates (%) p38α
Protocol: The compound of the present invention was dissolved in DMSO to prepare a solution with a concentration of 100 times the test concentration of 1 μmol/L. The solution was further diluted 25-fold with Assay Buffer (20 mmol/L HEPES, 0.01% Triton X-100, 2 mmol/L DTT, pH 7.5) to give a test substance solution. With regard to a positive control substance, a solution of the positive control substance was prepared in a similar manner.
Five microliters of a test substance solution with a concentration of four times prepared by using Assay Buffer, 5 μL of a solution of a substrate/ATP/a metal (Mg) with a concentration of four times and 10 μL of a solution of kinase with a concentration of two times were mixed in a well of a 384-well plate made of polypropylene, and the mixture was subjected to a reaction at room temperature for 1 hour. To the mixture, 60 μL of Termination Buffer (QuickScout Screening Assist MSA; Cama Biosciences, Inc.) was added to stop the reaction. The substrate peptide and the phosphorylated peptide in the reaction solution were separated, and were quantified. The kinase reaction was evaluated by a product ratio (P/(P+S)) calculated from a peak height (S) of the substrate peptide and a peak height (P) of the phosphorylated peptide. As other kinases, kinase selectivity experiments were performed using, for example, the p38α and Syk kinases. […]

Sequence of Brk enzyme (Q13882 whole entry): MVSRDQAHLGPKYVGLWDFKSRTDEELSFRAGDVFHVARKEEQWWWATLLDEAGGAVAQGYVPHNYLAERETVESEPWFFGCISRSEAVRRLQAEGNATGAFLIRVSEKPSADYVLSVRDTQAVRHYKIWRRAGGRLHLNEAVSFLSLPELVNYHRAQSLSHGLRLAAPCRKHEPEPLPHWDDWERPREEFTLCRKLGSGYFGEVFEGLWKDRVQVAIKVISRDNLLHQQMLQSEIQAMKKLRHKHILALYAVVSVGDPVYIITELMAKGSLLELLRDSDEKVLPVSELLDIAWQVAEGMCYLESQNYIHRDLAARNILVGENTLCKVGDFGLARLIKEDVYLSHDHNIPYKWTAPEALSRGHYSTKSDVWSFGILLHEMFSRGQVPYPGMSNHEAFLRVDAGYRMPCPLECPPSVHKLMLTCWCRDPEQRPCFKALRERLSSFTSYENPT
Sequence of p38α (Q16539 whole entry): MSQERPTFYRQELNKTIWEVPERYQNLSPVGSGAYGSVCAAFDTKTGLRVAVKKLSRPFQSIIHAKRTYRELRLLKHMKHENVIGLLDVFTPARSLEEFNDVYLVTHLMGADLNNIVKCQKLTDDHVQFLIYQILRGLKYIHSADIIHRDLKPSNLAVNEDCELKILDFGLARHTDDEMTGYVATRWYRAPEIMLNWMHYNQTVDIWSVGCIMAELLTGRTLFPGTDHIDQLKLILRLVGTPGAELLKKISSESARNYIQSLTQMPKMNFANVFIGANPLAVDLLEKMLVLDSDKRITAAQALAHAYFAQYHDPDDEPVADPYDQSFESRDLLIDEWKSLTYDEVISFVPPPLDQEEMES

IC50 (Brk enzyme) | inhibition at 1 µM (p38α) | Compound
22 nM |  | 6-amino-2-{[2-difluoro-4-(methylsulfonyl)phenyl]amino}-7-(7-fluoro-1H-indazol-4-yl)-9-isopropyl-7,9-dihydro-8H-purin-8-one [Example 5-11]
 | ≤ 24% | CC(C)n1c(=O)n(-c2ccc(F)c3[nH]ncc23)c2c(N)nc(Nc3ccc(S(C)(=O)=O)cc3F)nc21 [Example 3, 6-amino-7-(7-fluoro-1H-indazol-4-yl)-2-{[2-fluoro-4-(methylsulfonyl)phenyl]amino}-9-isopropyl-7,9-dihydro-8H-purin-8-one]
